From US9801901B2, “Alginate oligomers for use in overcoming multidrug resistance in bacteria” (priority 2009, dated 2017)
Converted amounts (≈) assume the structure as drawn. Read-outs that look alike come from different tables or passages of the source. Marks after values point to notes of the source that are not given here.

Tests used:
[1] = test system: Klebsiella pneumoniae KP05 506 from India (V3); assay: MIC assay, CAMHB with alginate oligomer, no visible growth; assay type: cell-based; settings: for MIC: V3 KP05 506
[2] = test system: Acinetobacter baumannii MDR ACB from Libya (V4); assay: as above; assay type: cell-based
Description: The study described in Example 1 was repeated with the following strains of bacteria and antibiotics as detailed in Tables 4, 5 and 6.
(§1) The study described in Example 1 was repeated with the following strains of Acinetobacter baumannii, antibiotics and M-block alginate oligomer in place of OligoG CF-5/20 as detailed in Table 7. The M-block oligomer is 100% M with a DPn of 15 to 18,

MDR Pseudomonas strains = assay: MIC assay of Example 1, summary over the MDR Pseudomonas strains; assay type: cell-based, Pseudomonas aeruginosa
[3] = test system: Pseudomonas aeruginosa, Klebsiella pneumoniae and Acinetobacter baumannii strains; assay: MIC assay of Example 1, summary over the strains; assay type: cell-based; settings: Example 1, Tables 1 and 2, all strains
[4] = test system: V23 1322 Burkholderia cepacia; assay: MIC assay, CAMHB with alginate oligomer, no visible growth; assay type: cell-based
[5] = test system: V19 non MDR Acinetobacter baumannii; assay: MIC assay, CAMHB with M-block alginate oligomer, no visible growth; assay type: cell-based; settings: Table 7, V19 non MDR Acin. baum
Description: as §1

[6] = test system: strains of Klebsiella pneumoniae displaying MDR phenotypes; assay: MIC-assay, Mueller-Hinton broth with G-block alginate, 384-well, OD600 (Table 10); assay type: cell-based
Description: Minimum inhibitory concentration (MICs) of different antibiotics for strains of Klebsiella pneumoniae displaying MDR phenotypes in the presence of varying concentrations of OligoCF-5/20 (0-10%). (MIC values are expressed in μg ml^−1).

V11 5702 (Wales) E. coli = assay: MIC assay, CAMHB with alginate oligomer, no visible growth; assay type: cell-based; settings: Table 5, V11 MDR E.coli
[7] = test system: MDR strains of Pseudomonas aeruginosa, Klebsiella pneumoniae, Burkholderia cepacia, Acinetobacter lwoffii, Acinetobacter baumannii and E. coli; assay: MIC assay of Example 2, summary over the strains of Tables 4, 5 and 6; assay type: cell-based; settings: Example 2, Tables 4, 5 and 6
[8] = test system: Burkholderia cepacia (1322, V23); assay: MIC-assay, Mueller-Hinton broth with G-block alginate, 384-well, OD600
[9] = test system: V10 (Egypt) Acinetobacter lwoffii; assay: MIC assay, CAMHB with alginate oligomer, no visible growth; assay type: cell-based; settings: Table 5, V10 MDR Acin. lwoff
V22 6056 Acinetobacter = assay: as above; assay type: cell-based, Acinetobacter lwoffii; settings: Table 5, V22 MDR Acin. lwoff
[10] = test system: Acinetobacter baumannii (Egypt, V9); assay: MIC-assay, Mueller-Hinton broth with G-block alginate, 384-well, OD600

CC[C@H]1OC(=O)[C@H](C)[C@@H](O[C@H]2C[C@@](C)(OC)[C@@H](O)[C@H](C)O2)[C@H](C)[C@@H](O[C@@H]2O[C@H](C)C[C@H](N(C)C)[C@H]2O)[C@](C)(O)C[C@@H](C)CN(C)[C@H](C)[C@@H](O)[C@]1(C)O [Azithromycin]
effectiveness in conjunction with alginate oligomers ([1]; Example 1, KP05 506): more effective | MIC ([1]; Klebsiella pneumoniae, Table 1, OligoCF-5/20 0G, read-out: MIC): 32 µg/mL (≈ 42.7 µM) | MIC ([1]; Klebsiella pneumoniae, Table 1, OligoCF-5/20 +2% G, read-out: MIC): 16 µg/mL (≈ 21.4 µM) | MIC ([1]; Klebsiella pneumoniae, Table 1, OligoCF-5/20 +6% G, read-out: MIC): 16 µg/mL (≈ 21.4 µM) | MIC ([1]; Klebsiella pneumoniae, Table 1, OligoCF-5/20 +10% G, read-out: MIC): 8 µg/mL (≈ 10.7 µM) | MIC ([1]; Table 2, OligoCF-5/20 0G): 32^† | MIC ([1]; Table 2, OligoCF-5/20 +2% G): 16^† | MIC ([1]; Table 2, OligoCF-5/20 +6% G): 16^† | MIC ([1]; Table 2, OligoCF-5/20 +10% G): 8^† | MIC ([2]; Acinetobacter baumannii, Table 1, V4 ACB (Libya), OligoCF-5/20 0G, read-out: MIC): 8 µg/mL (≈ 10.7 µM) | MIC ([2]; Acinetobacter baumannii, Table 1, V4 ACB (Libya), OligoCF-5/20 +2% G, read-out: MIC): 2 µg/mL (≈ 2.67 µM) | MIC ([2]; Acinetobacter baumannii, Table 1, V4 ACB (Libya), OligoCF-5/20 +6% G, read-out: MIC): < 0.25 µg/mL | MIC ([2]; Acinetobacter baumannii, Table 1, V4 ACB (Libya), OligoCF-5/20 +10% G, read-out: MIC): < 0.25 µg/mL | MIC ([2]; Acinetobacter baumannii, Table 7, V4 MDR Acin baum (Libya), M-block oligomer 0M, read-out: MIC): 8 µg/mL (≈ 10.7 µM) | MIC ([2]; Acinetobacter baumannii, Table 7, V4 MDR Acin baum (Libya), M-block oligomer +2% M, read-out: MIC): 8 µg/mL (≈ 10.7 µM) | MIC ([2]; Acinetobacter baumannii, Table 7, V4 MDR Acin baum (Libya), M-block oligomer +6% M, read-out: MIC): 8 µg/mL (≈ 10.7 µM) | MIC ([2]; Acinetobacter baumannii, Table 7, V4 MDR Acin baum (Libya), M-block oligomer +10% M, read-out: MIC): 2 µg/mL (≈ 2.67 µM) | effect in combination with alginate oligomers ([2]; Example 1, Acinetobacter baumannii isolate): more positive effect | MIC ([2]; Table 2, V4 ACB (Libya), OligoCF-5/20 0G): 8^† | MIC ([2]; Table 2, V4 ACB (Libya), OligoCF-5/20 +2% G): 2^† | MIC ([2]; Table 2, V4 ACB (Libya), OligoCF-5/20 +6% G): <0.25^† | MIC ([2]; Table 2, V4 ACB (Libya), OligoCF-5/20 +10% G): <0.25† | effectiveness when used in combination with the alginate oligomers (MDR Pseudomonas strains): more effective | change of MIC with increasing amounts of OligoG CF-5/20 [3]: decreasing MICs | MIC ([4]; Burkholderia cepacia, Table 5, V23 MDR Burk cep, OligoCF-5/20 0G, read-out: MIC): 128 µg/mL (≈ 171 µM) | MIC ([4]; Burkholderia cepacia, Table 6, V23, Experiment 1 (18-03-10), OligoCF-5/20 0G, read-out: MIC): 64 µg/mL (≈ 85.4 µM) | MIC ([4]; Burkholderia cepacia, Table 6, V23, Experiment 2 (18-03-10), OligoCF-5/20 0G, read-out: MIC): 32 µg/mL (≈ 42.7 µM) | MIC ([4]; Burkholderia cepacia, Table 6, V23, Experiment 3 (19-03-10), OligoCF-5/20 0G, read-out: MIC): 16 µg/mL (≈ 21.4 µM) | MIC ([4]; Table 5, V23 MDR Burk cep, OligoCF-5/20 +2% G): 64^† μg/ml | MIC ([4]; Table 5, V23 MDR Burk cep, OligoCF-5/20 +6% G): 16^† μg/ml | MIC ([4]; Table 5, V23 MDR Burk cep, OligoCF-5/20 +10% G): 4 µg/mL (≈ 5.34 µM) | MIC ([4]; Table 6, V23, Experiment 1 (18-03-10), OligoCF-5/20 +2% G): 64 µg/mL (≈ 85.4 µM) | MIC ([4]; Table 6, V23, Experiment 1 (18-03-10), OligoCF-5/20 +6% G): 64 µg/mL (≈ 85.4 µM) | MIC ([4]; Table 6, V23, Experiment 1 (18-03-10), OligoCF-5/20 +10% G): 32^† μg/ml | MIC ([4]; Table 6, V23, Experiment 2 (18-03-10), OligoCF-5/20 +2% G): 32 µg/mL (≈ 42.7 µM) | MIC ([4]; Table 6, V23, Experiment 2 (18-03-10), OligoCF-5/20 +6% G): 16^† μg/ml | MIC ([4]; Table 6, V23, Experiment 2 (18-03-10), OligoCF-5/20 +10% G): 16^† μg/ml | MIC ([4]; Table 6, V23, Experiment 3 (19-03-10), OligoCF-5/20 +2% G): 16 µg/mL (≈ 21.4 µM) | MIC ([4]; Table 6, V23, Experiment 3 (19-03-10), OligoCF-5/20 +6% G): 16 µg/mL (≈ 21.4 µM) | MIC ([4]; Table 6, V23, Experiment 3 (19-03-10), OligoCF-5/20 +10% G): 16 µg/mL (≈ 21.4 µM) | MIC ([5]; M-block oligomer 0M): 32 µg/mL (≈ 42.7 µM) | MIC ([5]; M-block oligomer +2% M): 16 µg/mL (≈ 21.4 µM) | MIC ([5]; M-block oligomer +6% M): 16 µg/mL (≈ 21.4 µM) | MIC ([5]; M-block oligomer +10% M): 16 µg/mL (≈ 21.4 µM) | MIC ([6]; Klebsiella pneumoniae (5712, Wales, V12) MDR, G-block (OligoCF-5/20) 0%, read-out: MIC): 16 µg/mL (≈ 21.4 µM) | MIC ([6]; Klebsiella pneumoniae (5712, Wales, V12) MDR, G-block (OligoCF-5/20) 2%, read-out: MIC): 16 µg/mL (≈ 21.4 µM) | MIC ([6]; Klebsiella pneumoniae (5712, Wales, V12) MDR, G-block (OligoCF-5/20) 6%, read-out: MIC): 16 µg/mL (≈ 21.4 µM) | MIC ([6]; Klebsiella pneumoniae (5712, Wales, V12) MDR, G-block (OligoCF-5/20) 10%, read-out: MIC): 16 µg/mL (≈ 21.4 µM) | MIC ([6]; Klebsiella pneumoniae (IR25, India, V6) MDR, G-block (OligoCF-5/20) 0%): 128 µg/mL (≈ 171 µM) | MIC ([6]; Klebsiella pneumoniae (IR25, India, V6) MDR, G-block (OligoCF-5/20) 2%, read-out: MIC): 64 µg/mL (≈ 85.4 µM) | MIC ([6]; Klebsiella pneumoniae (IR25, India, V6) MDR, G-block (OligoCF-5/20) 6%, read-out: MIC): 32 µg/mL (≈ 42.7 µM) | MIC ([6]; Klebsiella pneumoniae (IR25, India, V6) MDR, G-block (OligoCF-5/20) 10%, read-out: MIC): 16 µg/mL (≈ 21.4 µM) | MIC ([6]; Klebsiella pneumoniae (K3, India, V8) MDR, G-block (OligoCF-5/20) 0%, read-out: MIC): 16 µg/mL (≈ 21.4 µM) | MIC ([6]; Klebsiella pneumoniae (K3, India, V8) MDR, G-block (OligoCF-5/20) 2%, read-out: MIC): 8 µg/mL (≈ 10.7 µM) | MIC ([6]; Klebsiella pneumoniae (K3, India, V8) MDR, G-block (OligoCF-5/20) 6%, read-out: MIC): 16 µg/mL (≈ 21.4 µM) | MIC ([6]; Klebsiella pneumoniae (K3, India, V8) MDR, G-block (OligoCF-5/20) 10%, read-out: MIC): 16 µg/mL (≈ 21.4 µM) | MIC (V11 5702 (Wales) E. coli; Escherichia coli, OligoCF-5/20 0G, read-out: MIC): 32 µg/mL (≈ 42.7 µM) | MIC (V11 5702 (Wales) E. coli; OligoCF-5/20 +2% G): 16^† μg/ml | MIC (V11 5702 (Wales) E. coli; OligoCF-5/20 +6% G): 16^† μg/ml | MIC (V11 5702 (Wales) E. coli; OligoCF-5/20 +10% G): 32 µg/mL (≈ 42.7 µM) | change of MIC with increasing amounts of OligoG CF-5/20 [7]: decreasing MICs | MIC ([8]; Table 8, G-block (OligoCF-5/20) 0%): 64 µg/mL (≈ 85.4 µM) | MIC ([8]; Table 8, G-block (OligoCF-5/20) 2%): 32 µg/mL (≈ 42.7 µM) | MIC ([8]; Table 8, G-block (OligoCF-5/20) 6%): 32 µg/mL (≈ 42.7 µM) | MIC ([8]; Table 8, G-block (OligoCF-5/20) 10%): 8 µg/mL (≈ 10.7 µM) | MIC ([9]; Acinetobacter lwoffii, OligoCF-5/20 0G, read-out: MIC): < 0.25 µg/mL | MIC ([9]; OligoCF-5/20 +2% G): <0.25 µg/mL | MIC ([9]; OligoCF-5/20 +6% G): <0.25 µg/mL | MIC ([9]; OligoCF-5/20 +10% G): <0.25 µg/mL | MIC (V22 6056 Acinetobacter; Acinetobacter, OligoCF-5/20 0G, read-out: MIC): < 0.25 µg/mL | MIC (V22 6056 Acinetobacter; OligoCF-5/20 +2% G): <0.25 µg/mL | MIC (V22 6056 Acinetobacter; OligoCF-5/20 +6% G): <0.25 µg/mL | MIC (V22 6056 Acinetobacter; OligoCF-5/20 +10% G): <0.25 µg/mL | MIC ([10]; Table 9, G-block (OligoCF-5/20) 0%): 4 µg/mL (≈ 5.34 µM) | MIC ([10]; Table 9, G-block (OligoCF-5/20) 2%): < 1 µg/mL | MIC ([10]; Table 9, G-block (OligoCF-5/20) 6%): < 1 µg/mL | MIC ([10]; Table 9, G-block (OligoCF-5/20) 10%): < 1 µg/mL
